This is an account of results in patent publication US11851697B2, “Ex vivo protease activity detection for disease detection/diagnostic, staging, monitoring and treatment” (Glympse Bio, Inc., priority 2020, dated 2023).

In data set [1] the test system is proteases in NASH and healthy plasma cleaving Probe #102. In words: Inhibitor profiling of Probe #102 cleavage in NASH and healthy plasma. In kind it is biochemical, mice. As to the method: For this experiment, all plasma samples were prepared individually and diluted 1/10e in PBS with inhibitor added directly to the samples. Inhibitor was prepared at 15× concentration to final. Substrates were diluted in DI water at 18 uM, such that the final concentration on the plate would be 6 uM. All samples were prepared such that their last dilution on the plate would not affect the desired final concentration. 10 ul of each individual sample was pipetted into their corresponding wells, and the plate was then spun down in the centrifuge at 1500 RPM for 30 seconds to coat the bottom of each well with the sample. 5 ul of the 18 uM substrate solution was pipetted into each well being used on a 384 well plate, and then the plate was spun down in the centrifuge at 1500 rpm for 30 seconds. The plate was placed immediately in the plate reader at 37° C. for a 30-minute-long fluorescence kinetic read at 485/535 extended gain.
To assess the proteolytic cleavage pattern of Probe #102, samples were tested using a pool of broad inhibitors for serine, cysteine, threonine, MMP and aspartic protease family members (broad inhibitor) to assess general protease activity, AEBSF for serine proteases, E64 for cysteine proteases, CTSi for broad cathepsin inhibition of cathepsins L, S, K and B, or specific inhibitors for cathepsin K (L00625), for cathepsin L (SID) or cathepsin B (CA074).

The conditions of data set [2]: cited from earlier work.
Data set [3] relates to caspase activity in hepatitis. The data set can be described thus: Ex vivo probe cleavage in plasma of Jo2 fulminant hepatitis mice. In kind it is biochemical. To be noted: mouse plasma 3 hours after Jo2 injection vs healthy. The method, then: Fulminant hepatitis is induced after injection intraperitoneal of monoclonal antibody anti-CD95 (Jo2, BD biosciences, 4 ug/animal), and mouse plasma samples were collected 3 hours after Jo2 injection.

The next data set has as its system COVID-related proteases. In words: Ex vivo probe cleavage in COVID vs healthy K2EDTA and Lithium Heparin plasma. The format is biochemical.
The test system of data set [4] is cathepsin and/or MMP protease activities. In words: Ex vivo probe cleavage in plasma of healthy, NASH regression and NASH progression mice. In kind it is biochemical. To be noted: K2EDTA plasma collected at 20 weeks. From the text: Plasma samples were collected from all animals at 20 weeks.
The probes showing the most differentiation in NASH were linked to cathepsin and/or MMP protease activities.

[5] abbreviates: both K2EDTA and Lithium Heparin plasma sets.

Square brackets hold non-standard residues; d marks the D form. Primed or numbered codes have the meaning given here. Ends that are not written are not given here. CPQ2(3) = quencher on Lys side chain; FAM = fluorescent reporter; PEG2″ = PEG2 spacer; CPQ2 = quencher

Regarding `NCCc1ccc(S(=O)(=O)F)cc1` [AEBSF], the “decrease of NASH signal” value in data set [1] (NASH plasma, Probe #102) was 65%. Moreover, the “decrease of healthy signal” value in data set [1] (healthy plasma, Probe #102) was determined as 60%. Regarding `CCCNC(=O)[C@H]1O[C@@H]1C(=O)N[C@H](C(=O)N1CCC[C@H]1C(=O)O)[C@@H](C)CC` [CA074], in data set [1] (Probe #102), the “effect on signal for NASH or healthy samples” value was “did not significantly decrease signal”. For the compound `O=c1[nH]c(-c2ccccc2O)nc2ccccc12` [HPQ, 2-(2″-hydroxyphenyl)-4(3H)-quinazolinone], the solubility in water entry in data set [2] is on record as “strictly insoluble in water”. Consider `O=c1nc(-c2cc(C(=C(c3ccccc3)c3ccccc3)c3ccccc3)ccc2O)[nH]c2ccc(Cl)cc12` [HTPQ], for which the solubility in water result in data set [2] is on record as “strictly insoluble in water”. With `CC(C)C[C@H](NC(=O)[C@H]1O[C@@H]1C(=O)O)C(=O)NCCCCN=C(N)N` [Probe E64, E64], in data set [1] (NASH plasma, Probe #102, less decrease in signal for healthy), the “effect on NASH signal” value is “decreased NASH signal significantly”. For the compound `CN1CCN(c2nc(-c3ccc(C(=O)NC4(C(=O)NCC#N)CCCCC4)cc3)cs2)CC1` [Probe L006235], in data set [1] (Probe #102), the “effect on signal for NASH or healthy samples” value is “did not significantly decrease signal”. Take “Probe #8: Caspase centric probe (GVDVADGK; not fully specified; 5-FAM, CPQ2 quencher, PEG2; MOD_RES (8)..(8) Lys modified with a CPQ2 quencher)”: the “contrast in Jo2 hepatitis model” value in data set [3] was “show contrast that is specific and sensitive to the Jo2 model”.

For “Probe #12: Caspase centric probe (GDEVDGK; not fully specified; 5-FAM, CPQ2 quencher, PEG2; MOD_RES (7)..(7) Lys modified with a CPQ2 quencher)”, in data set [3], the “contrast in Jo2 hepatitis model” value is “show contrast that is specific and sensitive to the Jo2 model”. Consider “Probe #18: a Neutrophil elastase substrate (GAAPVGK(CPQ2); not fully specified (N-terminus, C-terminus); also: 5-FAM (place not given here), PEG2-kk-GC (place not given here))”, for which the “differential cleavage between COVID and healthy samples” value in the data set on COVID-related proteases (setting [5]) is given as “demonstrated contrast in both sets”. Same read-out and setting: under “Probe #84: a Furin substrate (GRVKRGLAGK(CPQ2); not fully specified (N-terminus, C-terminus); also: 5-FAM (place not given here), PEG2-kk-GC (place not given here))” stands “demonstrated contrast in both sets”. With “Probe #96: probe of Table 1 ({FAM}-GRPLALWESQGK(CPQ2)[PEG2″][dK]GC; not fully specified; printed as (FAM)-GRPLALWESQG-K(CPQ2)-PEG2-k-GC; also: FAM, position not given here)”, the “differentiation among healthy, regression and NASH samples” value (shortened to “differentiation among healthy”) in data set [4] is “can differentiate”.

On to “Probe #102: a CTSL sensing probe; sequence in Table 1 ({FAM}-GKPILFFRLKGK(CPQ2(3))[PEG2″][dK][dK]GC; not fully specified; printed as (FAM)-GKPILFFRLKG-K(CPQ2)-PEG2-kk-GC)”, for which, in data set [4], the “differentiation among healthy” value is “can differentiate”. Besides, in data set [1] (individual cathepsin inhibitors, FIG. 30D-F), the “protease to which the probe responds” value is “specifically responds to the activity of cathepsin L (CTSL)”. As to “Probe #409: the SARS CoV2 coronavirus substrate (SARS-COV2 3C protease) (GTSAVLQSGFRKGK(CPQ2); not fully specified (N-terminus, C-terminus); also: 5-FAM (place not given here), PEG2-kk-GC (place not given here))”, the “differential cleavage between COVID and healthy samples” value in the data set on COVID-related proteases (K2 EDTA samples) is reported as “modest contrast”. Take “Probe #428: probe of Table 1 ({FAM}-GDRRKKLTQGK(CPQ2(3))[PEG2″][dK][dK]GC; not fully specified; printed as (FAM)-GDRRKKLTQG-K(CPQ2)-(PEG2)-DLys-DLys-GC)”: in data set [4], the “differentiation among healthy” value is recorded as “can differentiate”. As to “Probe #462: a MMP8 substrate (GKKAKRNALGK(CPQ2); not fully specified (N-terminus, C-terminus); also: FAM (place not given here), PEG2, DLys-DLys-GC (place not given here))”, the “differential cleavage between COVID and healthy samples” value in the data set with COVID-related proteases (setting [5]) is “demonstrated contrast in both sets”. As to “Probe #492: probe of Table 1 ({FAM}-GQRANSIRVTWGK(CPQ2(3))[PEG2″][dK][dK]GC; not fully specified; printed as (FAM)-GQRANSIRVTWG-K(CPQ2)-(PEG2)-DLys-DLys-GC)”, in data set [4], the “differentiation among healthy” value is “can differentiate”.

With “Probe #520: probe of Table 1 (GKPISLISSGK; not fully specified; 5FAM, CPQ2 quencher, PEG2; MOD_RES (11)..(11) Lys modified with a CPQ2 quencher)”, the “differentiation among healthy” value in data set [4] was “can differentiate”.
